Where a name gives a salt, the structure may show the parent alone.
Assays:
[1] = N2O headspace analysis (GC) of HNO production, relative to Angeli's salt; assay type: physicochemical; details: for HNO / N2O production (in words): decomposition at pH 7.4; for % HNO: donor 0.1 mM, 37° C., PBS pH 7.4, yield relative to Angeli's salt by N2O headspace analysis, SEM ±5%, n = 3
Experimental: Nitrous oxide is produced via the dimerization and dehydration of HNO, and is the most common marker for HNO production (Fukuto, J. M. et al., Chem. Res. Toxicol. 2005, 18, 790-801).
Gas chromatography was performed on a Varian CP-3800 instrument equipped with a 1041 manual injector, electron capture detector, and a 25 m 5 Å molecular sieve capillary column. Grade 5.0 nitrogen was used as both the carrier (8 mL/min) and the make-up (22 mL/min) gas. The injector oven and the detector oven were kept at 200° C. and 300° C., respectively. All nitrous oxide analyses were performed with the column oven held constant at 150° C. All gas injections were made using a 100 μL gastight syringe with a sample-lock. Samples were prepared in 15 mL amber headspace vials with volumes pre-measured for sample uniformity (actual vial volume ranges from 15.19-15.20 mL). Vials were charged with 5 mL of PBS buffer containing DTPA, purged with argon, and sealed with a rubber septum. The vials were equilibrated for at least 10 minutes at 37° C. in a dry block heater. A 10 mM stock solution of Angeli's salt (AS) was prepared in 10 mM sodium hydroxide, and HNO donors 1a-4a, 6a (10 mM) were prepared in acetonitrile or methanol and used immediately after preparation. From these stock solutions, 50 μL was introduced into individual thermally-equilibrated headspace vials using a gastight syringe, yielding final substrate concentrations of 0.1 mM. Substrates were then incubated long enough to ensure complete decomposition and equilibration of N2O with the headspace. The headspace (60 μL) was then sampled and injected five successive times using a gastight syringe with a sample lock. This was repeated for n≧3 vials per donor. The nitrous oxide yield was averaged and reported relative to the standard, Angeli's salt. For chemical trapping of HNO, glutathione (100 μL of 10 mM in PBS) was added prior to HNO donor addition to give a final glutathione concentration of 0.2 mM, and headspace sampling for N2O was analogously performed as stated above.

[2] = Decomposition kinetics monitored by UV-Vis spectroscopy; assay type: physicochemical
Experimental: NMR spectra were obtained on a Bruker Avance 400 MHz FT-NMR spectrometer. […] High-resolution mass spectra were obtained on a VG Analytical VG70SE magnetic sector mass spectrometer operating in fast atom bombardment (FAB) mode. […] Phosphate-buffered saline (PBS) solutions (0.1 M) were prepared with 140 mM NaCl and 3 mM KCl, with 100 μM diethylenetriaminepentaacetic acid (DTPA), adjusted to pH 7.4.

[3] = Decomposition monitored by 1H NMR spectroscopy (carbanion yield, kinetics, half-life); assay type: physicochemical; details: 10% D2O
From the text: […] In each case, the bottom spectrum was collected at the start of the experiment, and the top spectrum after complete decomposition.
NMR spectra were obtained on a Bruker Avance 400 MHz FT-NMR spectrometer. […] High-resolution mass spectra were obtained on a VG Analytical VG70SE magnetic sector mass spectrometer operating in fast atom bombardment (FAB) mode. […]

[4] = test system: Sprague-Dawley rats; assay: Acute cardiovascular effects, pressure-volume (PV) loop analysis in anesthetized rats; assay type: in vivo, rat; details: IV infusion 100 μg/kg/min, 5 rats
Experimental: The acute cardiovascular effects of compounds 4a and 6a, when administered intravenously to Sprague-Dawley rats at an infusion rate of 100 μg/kg/min, were examined by means of pressure-volume (PV) curve (loops) analysis. PV families/relationships were generated via pre-load variation and hemodynamic indices were compared to baseline values. Each test article was administered to 5 rats.
Rats were intraperitoneally (IP) anesthetized to effect with pentobarbital (˜50 mg/kg), shaved and positioned in dorsal recumbence, endotracheally intubated and ventilated […], ˜2.5 mL tidal volume with 95% O2/5% CO2) with an adjustable small animal ventilator (Harvard Apparatus). Anesthesia was maintained with a continuous pentobarbital infusion (to effect, ˜3 to 5 mg/kg/h, IV) until completion of the experiment via an indwelling catheter placed in a femoral vein. Subsequently, transthoracic needle electrodes forming a single-lead ECG were placed. For LV mechano-energetic evaluation, the right carotid artery was isolated, dissected free from the surrounding tissue, and cannulated with a 2F high-fidelity conductance/micromanometer catheter (Millar Instruments). This catheter was advanced retrograde across the aortic valve and into the LV chamber in order to simultaneously determine left-ventricular pressure and volume (via conductivity). […] Meanwhile, in order to record arterial pressures, a 2F high-fidelity micromanometer catheter (Millar Instruments) was inserted into a femoral artery and advanced towards the abdominal aorta. Finally, an in-dwelling catheter was placed into the jugular vein for administration of test article.
Following collection of baseline hemodynamic data, infusion of test article was initiated at an infusion rate of 100 μg/kg/min; at 10 μL/min. Pressure-volume analyses were performed again approximately 30 min and 45 min after the initiation of the dose.
The resulting left-ventricular pressure and volume data was analyzed offline (IOX/ECG Auto; EMKA Technologies) in order to generate relationships representing the contractile and energetic state of the myocardium. Systolic (SAP), diastolic (DAP), and mean (MAP) arterial pressures were collected. Left-ventricular mechanical and/or geometrical indices were obtained from the pressure (ESP, EDP, dP/dt max/min, time-constant of relaxation—tau [based on mono-exponential decay with non-zero asymptote]) and volume (ESV, EDV, SV) signal. In addition, the following measurements were derived from left-ventricular pressure-volume data (PV loops) generated during brief periods of preload reduction: • Pressure volume area (PVA) and stroke work (SW). • End-systolic (ESPVR) and end-diastolic (EDPVR) pressure volume relationships. • End systolic pressure and stroke volume relationship (Arterial Elastance, Ea).
Data are presented as means with standard errors (mean±SEM) in Table 6.

[5] = Decomposition kinetics monitored by UV-Vis spectroscopy; assay type: physicochemical; details: PBS, pH 7.4, Condition A: pH 7.4, 37° C., 0.1M PBS, 100 μL DTPA, air (UV/Vis)
[6] = comparison value; cited from earlier work
[7] = PBS, pH 7.4, Condition B: pH 7.4, 37° C., 0.25M PBS, no chelator, air (1H NMR)
[8] = PBS, pH 7.4, Condition G: pH 7.4, 37° C., 0.25M PBS, 100 μL DTPA, air (1H NMR)

CC1(C)OC(=O)C(C)(NO)C(=O)O1 [Compound 1a, 5-(N-hydroxylamine)-5-methyl-Meldrum's acid hydrochloride monohydrate]
HNO / N2O production (in words) [1]: only trace amounts of N2O | % HNO [1]: 2%

CO/N=C(\C)C1(NO)C(=O)OC(C)(C)OC1=O [Compound 2a, 5-(N-hydroxylamine)-5-(acetyl-O-methoxyoxime)-Meldrum's acid]
HNO / N2O production (in words) [1]: enhanced HNO yield | % HNO [1]: 25% | half-life ([2]; PBS, pH 7.4, footnote c not given, pH 7.4, 37° C., read-out: t1/2): 0.015 h

CCC1(NO)C(=O)N(C)C(=O)N(C)C1=O [Compound 3a, 5-(N-hydroxylamine)-5-ethyl-N,N-dimethylbarbituric acid hydrochloride]
HNO / N2O production (in words) [1]: produced little HNO | % HNO [1]: 2%

CO/N=C(\C)C1(NO)C(=O)N(C)C(=O)N(C)C1=O [Compound 4a, 5-(N-hydroxylamine)-5-(acetyl-O-methoxyoxime)-N,N-dimethylbarbituric acid]
decomposition rate constant k (single exponential fit) ([3]; 4a to 4b, PBS, pH 7.4, room temperature): 0.0024 s⁻¹ | HNO / N2O production (in words) [1]: high yield of N2O | % HNO [1]: 110% | Mean Blood Pressure ([4]; baseline 124 (4a) / 138 (6a)): 71 mmHg | Stroke Volume ([4]; mean, baseline 1 (4a) / 2.2 (6a)): 1.2 relative volume units | End Diastolic Pressure Volume Relationship ([4]; mean, baseline 1.7 (4a) / 1.8 (6a)): 1.6 | End Diastolic Pressure ([4]; mean, baseline 4.7 (4a) / 4.4 (6a)): 3.4 mmHg | Tau ([4]; mean, baseline 8.5 (4a) / 8.7 (6a)): 7.8 ms | Arterial Elastance ([4]; mean, baseline 9.2 (4a) / 7.4 (6a)): 4.8 | End Diastolic Volume ([4]; mean, baseline 14.6 (4a) / 19.2 (6a)): 15 relative volume units | End Systolic Pressure Volume Relationship ([4]; mean, baseline 28.1 (4a) / 23.7 (6a)): 34.1 | Pre-Load Recruitable Stroke Work ([4]; mean, baseline 37.6 (4a) / 42.8 (6a)): 54.3 | Diastolic Blood Pressure ([4]; mean, baseline 109 (4a) / 121 (6a)): 62 mmHg | Stroke Work ([4]; mean, baseline 112 (4a) / 227 (6a)): 74 relative volume units × mmHg | End Systolic Pressure ([4]; mean, baseline 134 (4a) / 141 (6a)): 71 mmHg | Systolic Blood Pressure ([4]; mean, baseline 147 (4a) / 160 (6a)): 85 mmHg | Pressure Volume Area ([4]; mean, baseline 343 (4a) / 590 (6a)): 151 | Heart Rate ([4]; mean, baseline 365 (4a) / 340 (6a)): 350 bp, m | Left Ventricular +dP/dt ([4]; mean, baseline 6392 (4a) / 7689 (6a)): 3518 mmHg/s | Left Ventricular −dP/dt ([4]; mean, baseline −7585 (4a) / −8257 (6a)): −4096 mmHg/s | half-life ([2]; buffer, pH 4, pH 4.0 and room temperature, read-out: half-life (converted)): ~24 h | half-life ([2]; buffer, pH 7.4, footnote c not given, pH 7.4, 37° C., read-out: t1/2): 0.0117 h | half-life ([2]; buffer, pH 7.4, pH 7.4 and 37° C., read-out: half-life (converted)): ~0.0167 h | pH near which the decomposition rate sharply increases ([2]; decomposition rate as a function of pH at 25° C., UV-Vis): ~8

CO/N=C(\C)C1(NO)C(=O)N(C)N=C1C (centres unmarked) [Compound 7a, 4-(N-hydroxylamine)-4-(acetyl-O-methoxyoxime)-N-methyl-5-methyl-pyrazolone]
half-life [5]: 0.383 h

CC1=NN(c2ccccc2)C(=O)C1(C)NO (centres unmarked) [Compound 8a, 4-(N-hydroxylamine)-4-methyl-N-phenyl-5-methyl-pyrazolone]
half-life [3, 7]: 16 h | half-life ([3]; PBS, pH 7.4, Condition C: pH 7.4, 37° C., 0.25M PBS, 100 μL DTPA, BME (20 equiv.), argon (1H NMR)): 28 h | half-life ([3]; PBS, pH 7.4, Condition D: pH 7.4, 37° C., 0.25M PBS, 100 μL DTPA, GSH (2 equiv.), argon (1H NMR)): 50 h | half-life ([3]; PBS, pH 7.4, Condition E: pH 7.4, 37° C., 0.25M PBS, 100 μL DTPA, 12b (1 equiv.), air (1H NMR)): 100 h

CC1=NN(C)C(=O)C1(C)NO (centres unmarked) [Compound 9a, 4-(N-hydroxylamine)-4-methyl-N-methyl-5-methyl-pyrazolone]
% remains after 48 h ([3]; Condition F: pH 7.4, 37° C., 0.25M PBS, no chelator, nitrogen (1H NMR)): 84% remains after 48 | half-life [3, 7]: 48 h

CC1=NN(c2ccc(Cl)cc2)C(=O)C1(C)NO (centres unmarked) [Compound 10a, 4-(N-hydroxylamine)-4-methyl-N-(4-chlorophenyl)-5-methyl-pyrazolone]
half-life [3, 8]: 84 h

CC1=NN(c2ccccc2Cl)C(=O)C1(C)NO (centres unmarked) [Compound 11a, 4-(N-hydroxylamine)-4-methyl-N-(2-chlorophenyl)-5-methyl-pyrazolone]
half-life [3, 8]: 120 h

CC1=NNC(=O)C1(C)NO (centres unmarked) [Compound 12a, 4-(N-hydroxylamine)-4-methyl-5-methyl-pyrazolone]
% remains after 7 d ([3]; Condition G: pH 7.4, 37° C., 0.25M PBS, 100 μL DTPA, air (1H NMR)): 70% remains after 7 d

CC1(C)OC(=O)CC(=O)O1 [Meldrum's acid]
pKa [6]: 4.8

CN1C(=O)CC(=O)N(C)C1=O [N,N-dimethyl barbituric acid]
pKa [6]: 4.7

CC1=NN(c2ccccc2)C(=O)C1 [edaravone]
pKa [6]: 7
